For orientation: Kd means the concentration at which binding is half-saturated.

This test has as its target Chaperone protein DnaK (Escherichia coli (strain K12)) (UniProt P0A6Y8). The test is described as follows: E. coli DnaK SBD ligand binding – biophysical, NMR, chaperone (AID 1033). To be noted: Purified DnaK SBD.

SMILES strings stand for the structures. Active and inactive are the calls of the source. No rule for the calls is given here.

Chain of Chaperone protein DnaK (Escherichia coli (strain K12)) (P0A6Y8 whole entry, looked up): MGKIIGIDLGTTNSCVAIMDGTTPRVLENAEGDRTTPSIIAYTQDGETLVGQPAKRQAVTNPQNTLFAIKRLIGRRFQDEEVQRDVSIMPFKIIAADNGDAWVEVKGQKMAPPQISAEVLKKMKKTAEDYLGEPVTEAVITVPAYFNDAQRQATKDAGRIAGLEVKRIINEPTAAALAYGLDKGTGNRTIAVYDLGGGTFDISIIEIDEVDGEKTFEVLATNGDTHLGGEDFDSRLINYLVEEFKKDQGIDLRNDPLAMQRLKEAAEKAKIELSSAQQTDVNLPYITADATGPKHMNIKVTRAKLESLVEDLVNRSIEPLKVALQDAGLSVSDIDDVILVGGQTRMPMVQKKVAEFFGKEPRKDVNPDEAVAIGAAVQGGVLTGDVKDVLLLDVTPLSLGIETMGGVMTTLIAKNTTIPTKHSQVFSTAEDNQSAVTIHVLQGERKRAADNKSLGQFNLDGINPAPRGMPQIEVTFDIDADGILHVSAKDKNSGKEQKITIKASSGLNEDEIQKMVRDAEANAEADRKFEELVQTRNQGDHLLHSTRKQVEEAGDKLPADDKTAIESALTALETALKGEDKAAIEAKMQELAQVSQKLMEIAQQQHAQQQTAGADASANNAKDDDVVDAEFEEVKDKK

As to `COC(=O)CSc1n[nH]c(N)n1`, the Kd is > 4 mM (inactive).

Turning to `Cc1ccc(/C=C2/C(=O)N=C(N)N2C)s1`, the Kd was > 4 mM (inactive).

As to `O=C(Nc1ccccc1)c1cnc2n(c1=O)CCS2`, the Kd was > 4 mM (inactive).

Take `O=C(NN=C1CCCC1)c1ccncc1`: the Kd is > 4 mM (inactive).

Regarding `O=C(NCC1CCCCC1)c1ccco1`, the Kd was > 4 mM (inactive).

With `Cc1nccc(-c2cccc(N)c2)n1`, the Kd is > 4 mM (inactive).

On to `CCNC(=S)NS(=O)(=O)c1ccccc1`, for which the Kd is > 4 mM (inactive).

`NC(CC(=O)O)C(=O)Nc1ccc(Cl)cc1` (centres undefined): the Kd is > 4 mM (inactive).

As for `COC(=O)c1ccc2snnc2c1`, the Kd is > 4 mM (inactive).

Consider `O=C(O)c1ccc(N2CCCCC2)cc1`, for which the Kd was > 4 mM (inactive).

Regarding `CC(=O)O[C@H]1CCC2(C)C3=C(CCC2C1(C)C)[C@@]1(C)CC[C@@H](C(C)CCC=C(C)C)[C@]1(C)CC3` (some centres undefined), the Kd was > 4 mM (inactive).

Turning to `CNC(=O)C1COc2ccccc2O1` (centres undefined), the Kd is > 4 mM (inactive).

Consider `O=[N+]([O-])c1cccc(-c2c[n+](=O)c3c(n2[O-])CCC3)c1`, for which the Kd was > 4 mM (inactive).

As for `C[C@@H]1CC[C@@]23CCC4(C)[C@@](C=CC5[C@@]6(C)CCC(=O)C(C)(C)C6CC[C@]54C)(OC2=O)C3[C@H]1C` (some centres undefined), the Kd is > 4 mM (inactive).

On to `O=C(O)C1CSC(c2ccc(Cl)cc2)N1` (centres undefined), for which the Kd is > 4 mM (inactive).

As to `NC(N)=Nc1nc2ccccc2o1`, the Kd was > 4 mM (inactive).

For `CC1=C2C(O)C(=O)OC3CC4C(C)(C)C(=O)C=C[C@]4(C)C(CC1)[C@]23C` (some centres undefined), the Kd is > 4 mM (inactive).

On to `Cn1nc(-c2cccs2)cc1N`, for which the Kd is > 4 mM (inactive).

`CC[C@@H]1[C@@H](O)N2C3C[C@H]1C1C(O)[C@]4(C[C@@H]12)c1ccccc1N(C)[C@@H]34` (some centres undefined): the Kd was > 4 mM (inactive).

As for `N/N=C1\CCCc2c1no[n+]2[O-]`, the Kd is > 4 mM (inactive).

Take `CC(=O)N1CCN(c2ccc(N)cc2)CC1`: the Kd is > 4 mM (inactive).

For `CCC1(CC)C(=O)NC(=O)N=C1N`, the Kd is > 4 mM (inactive).

Turning to `Cn1cccc1C(=S)N1CCOCC1`, the Kd was > 4 mM (inactive).

Take `C=CCCCCCCCCCCCC(O)CC(O)COC(C)=O` (centres undefined): the Kd was > 4 mM (inactive).

Take `COc1cc(-c2coc3cc(OCc4ccccc4)c(OC)c(O)c3c2=O)cc(O)c1OC`: the Kd is > 4 mM (inactive).

On to `CN1CCC(N(C)Cc2cccnc2)CC1`, for which the Kd is > 4 mM (inactive).

As to `COc1ccc(C2=CC(=O)C=CC2=O)cc1`, the Kd is > 4 mM (inactive).

Take `CN1CN/C(=N\[N+](=O)[O-])N(c2ccccc2)C1`: the Kd was > 4 mM (inactive).

With `O=C(O)c1cccc2c1OCCCO2`, the Kd was > 4 mM (inactive).

With `O=c1ccc2cc(O[C@@H]3O[C@H](CO)[C@@H](O)[C@H](O)[C@H]3O)c(O)cc2o1`, the Kd is > 4 mM (inactive).

In the case of `CCN1CCc2c(sc(N)c2C#N)C1`, the Kd was > 4 mM (inactive).

`CCCNC(CC(=O)Nc1cccnc1)C(=O)O` (centres undefined): the Kd was > 4 mM (inactive).

`COc1cc(OC)cc(-c2nc(N)n[nH]2)c1`: the Kd is > 4 mM (inactive).

For `Cc1nc2[nH]onc2c2nccc(=O)c12`, the Kd is > 4 mM (inactive).

As to `Clc1ncnc2[nH]ncc12`, the Kd was > 4 mM (inactive).

Regarding `O=C(Cc1ccc(F)cc1)Nc1ncccn1`, the Kd is > 4 mM (inactive).

In the case of `O=C(Cc1c(F)cccc1Cl)Nc1ccon1`, the Kd is > 4 mM (inactive).

Take `NC(=O)c1ccsc1NC(=O)c1ccco1`: the Kd is > 4 mM (inactive).

With `NC1=NC(=O)/C(=C\c2ccco2)S1`, the Kd was > 4 mM (inactive).

As to `Cc1n[nH]c(C)c1CN`, the Kd is > 4 mM (inactive).

`Cc1cccc(C)c1NC(=O)CN1CCOCC1`: the Kd is > 4 mM (inactive).

On to `O=C(O)CCC1=C2c3ccccc3CCN2C(=O)CC1`, for which the Kd was > 4 mM (inactive).

Turning to `CC(=O)Nc1ccc(N(C)C(C)=O)cc1`, the Kd is > 4 mM (inactive).

Regarding `O=C(NCc1cccc(Cl)c1)c1cccnc1`, the Kd is > 4 mM (inactive).

`Cc1nnsc1C(=O)Nc1ccc(C(N)=O)cc1`: the Kd is > 4 mM (inactive).

On to `COc1cc2ccc(=O)oc2c(OC)c1OC`, for which the Kd is > 4 mM (inactive).

In the case of `c1cncc(C(N2CCOCC2)N2CCOCC2)c1`, the Kd is > 4 mM (inactive).

With `COc1cccc(OC)c1C(=O)N1CCOCC1`, the Kd was > 4 mM (inactive).

As to `Nc1ccccc1N1CCOCC1`, the Kd was > 4 mM (inactive).

As for `O=C(c1ccco1)N1CCn2c1nc1ccccc12`, the Kd was > 4 mM (inactive).

As for `CS(C)=C1C(=O)NC(=O)N(Cc2ccc(F)cc2)C1=O`, the Kd is > 4 mM (inactive).

On to `c1coc(CNc2nc(-c3ccncc3)cs2)c1`, for which the Kd is > 4 mM (inactive).

`CCCCCC1C(=O)CCC1CC(=O)OC` (centres undefined): the Kd is > 4 mM (inactive).

For `CN(C)CCNC(CC(=O)Nc1ccccc1)C(=O)O` (centres undefined), the Kd is > 4 mM (inactive).

In the case of `NC(=O)c1ccsc1NC(=O)C1=COCCO1`, the Kd was > 4 mM (inactive).

Take `OC1CSc2ncnn2C1` (centres undefined): the Kd is > 4 mM (inactive).

Consider `O=C(c1nc2ncccn2n1)N1CCc2ccccc2C1`, for which the Kd was > 4 mM (inactive).

With `Cc1cc2c(nn1)CCc1nonc1-2`, the Kd was > 4 mM (inactive).

`O=C1CN(C(=O)c2ccccc2)c2ccccc2N1`: the Kd was > 4 mM (inactive).

Consider `NS(=O)(=O)c1ccc(NC(=O)c2cccs2)cc1`, for which the Kd is > 4 mM (inactive).

For `Cc1cc([N+](=O)[O-])cc[n+]1[O-]`, the Kd was > 4 mM (inactive).

In the case of `OCc1csc(-c2cccs2)n1`, the Kd was > 4 mM (inactive).

As to `Cc1noc(C)c1C(=O)N1CCC(Cc2ccccc2)CC1`, the Kd was > 4 mM (inactive).

In the case of `Cn1nc(C(=O)NC2CCCCC2)c2ccccc2c1=O`, the Kd is > 4 mM (inactive).

In the case of `O=C(Nc1ccccc1N1CCCC1)c1cccnc1`, the Kd was > 4 mM (inactive).

For `CN1C2C[C@H](OC(=O)[C@H](CO)c3ccccc3)C[C@H]1[C@@H](O)C2`, the Kd was > 4 mM (inactive).

Take `CN1CCC(NC(=O)c2cnccn2)CC1`: the Kd is > 4 mM (inactive).

With `O=C(O)C1CCN(C(=O)c2cccs2)CC1`, the Kd is > 4 mM (inactive).

Regarding `CC12OC(=O)CC3C(C)(C)[C@H](O)C=C[C@]3(C)C1CC[C@]1(C)C2=CC(=O)O[C@H]1c1ccoc1` (some centres undefined), the Kd was > 4 mM (inactive).

On to `OC12C=CC(CC1)CC2`, for which the Kd was > 4 mM (inactive).

Take `O=C(O)CSc1cccc2cccnc12`: the Kd was > 4 mM (inactive).

With `CCC1(CC)C(=O)N=C(N)NC1=O`, the Kd was > 4 mM (inactive).

For `NS(=O)(=O)c1ccc(NC(=O)C2CC2)cc1`, the Kd was > 4 mM (inactive).

Turning to `CN(C)c1ccc(NC(=O)CC(C(=O)O)N(C)C)cc1` (centres undefined), the Kd is > 4 mM (inactive).

Take `OC[C@H]1O[C@@H](n2cnc3c(NCc4ccco4)ncnc32)[C@H](O)[C@@H]1O`: the Kd is > 4 mM (inactive).

For `O=C(O)CCCCC1SCC2NC(=O)NC21` (centres undefined), the Kd was > 4 mM (inactive).

In the case of `Nc1cc(F)ccc1-n1ccnc1`, the Kd was > 4 mM (inactive).

Turning to `O=C(/C=C/C=C/c1ccc2c(c1)OCO2)N1CCCCC1`, the Kd was > 4 mM (inactive).

For `O=C(O)CS(=O)(=O)c1ccccc1`, the Kd was > 4 mM (inactive).

`COC(=O)N1CCN(c2ccc(OC)cc2)CC1`: the Kd was > 4 mM (inactive).

In the case of `Nc1nnc(Cc2ccc(Cl)cc2)s1`, the Kd was > 4 mM (inactive).

With `NC1=NC(=O)/C(=C/c2cccs2)S1`, the Kd was > 4 mM (inactive).

`CC(C)=CC(=O)Nc1ccc2c(c1)OCO2`: the Kd was > 4 mM (inactive).

Turning to `C[n+]1ccn(C/C(N)=N/O)c1`, the Kd was > 4 mM (inactive).

As for `Cc1ccc2[nH]c3nc(=S)[nH]nc3c2c1`, the Kd was > 4 mM (inactive).

Consider `CCC(C)C(=O)OC1[C@@H]2CC3=C4CC(=O)O[C@@H](c5ccoc5)[C@]4(C)CCC3C(C)(C2=O)[C@@H](CC(=O)OC)C1(C)C` (some centres undefined), for which the Kd was > 4 mM (inactive).

Consider `O=C1Nc2ccccc2C1(O)Cc1ccncc1` (centres undefined), for which the Kd was > 4 mM (inactive).

Regarding `O=C1NC(=O)C(c2ccccc2)C(=O)N1`, the Kd was > 4 mM (inactive).

As for `O=C(c1ccc(F)cc1)N1CCN(c2ncccn2)CC1`, the Kd is > 4 mM (inactive).

Take `CC(=O)c1cc(CN2C(=O)c3ccccc3C2=O)cs1`: the Kd is > 4 mM (inactive).

As to `COc1cc(C(=S)N2CCOCC2)ccc1O`, the Kd was > 4 mM (inactive).

`C=C(C)[C@H]1Cc2c(ccc3c2O[C@@H]2COc4cc(OC)c(OC)cc4[C@@H]2C3=O)O1`: the Kd is > 4 mM (inactive).

On to `CNC(=O)C(=O)NCc1ccc(C)cc1`, for which the Kd is > 4 mM (inactive).

On to `CC1/C(=N/O)C[C@@H]2C[C@H]1C2(C)C` (some centres undefined), for which the Kd is > 4 mM (inactive).

`CC(=O)N1C(=S)NC(=O)/C1=C\c1cccnc1`: the Kd was > 4 mM (inactive).

As for `COCCn1c(SC)nc2c1c(=O)[nH]c(=O)n2C`, the Kd is > 4 mM (inactive).

On to `COc1ccc2c(C)cc(=O)oc2c1`, for which the Kd was > 4 mM (inactive).

Regarding `CCN1CCC(NC2CCC(O)CC2)CC1` (centres undefined), the Kd was > 4 mM (inactive).

On to `O=C(O)C1COc2ccccc2O1` (centres undefined), for which the Kd was > 4 mM (inactive).

With `O=C1c2cccnc2C(=O)N1Cc1ccco1`, the Kd was > 4 mM (inactive).

Take `Cc1cc(C(=O)NN2CCOCC2)c(C)o1`: the Kd was > 4 mM (inactive).

On to `CN1CCC(NC(=O)c2ccccc2[N+](=O)[O-])CC1`, for which the Kd was > 4 mM (inactive).

Regarding `CN(C)C(=S)Nc1ccccc1N1CCOCC1`, the Kd was > 4 mM (inactive).

`CC(=O)NC1=NN(c2ccccc2)C(=O)C1`: the Kd was > 4 mM (inactive).

Source of the values: PubChem BioAssay AID1033 (Sanford-Burnham Center for Chemical Genomics, 2008).
